Laboratory results from US20250319024A1, “TARGETED NANOPARTICLES AND THEIR USES RELATED TO INFECTIOUS DISEASE” (priority 2021, published 2025).

Columns and labels:
[1] = system: M. tuberculosis; details: literature; cited from earlier work
[2] = system: T. gondii; details: 200 mg/kg per day for 10 days, previous studies; cited from earlier work
[3] = system: C. albicans, A. fumigatus, C. neoformans; assay: Liposome binding, summary statements over all three fungal species

CO[C@H]1/C=C/O[C@@]2(C)Oc3c(C)c(O)c4c(O)c(c(/C=N/N5CCN(C)CC5)c(O)c4c3C2=O)NC(=O)/C(C)=C\C=C\[C@H](C)[C@H](O)[C@@H](C)[C@@H](O)[C@@H](C)[C@H](OC(C)=O)[C@@H]1C [free RIF, rifampin]
doses reported to control murine infections [1]: ~10 mg/kg/day

CC[C@H]1OC(=O)[C@H](C)[C@@H](O[C@H]2C[C@@](C)(OC)[C@@H](O)[C@H](C)O2)[C@H](C)[C@@H](O[C@@H]2O[C@H](C)C[C@H](N(C)C)[C@H]2O)[C@](C)(O)C[C@@H](C)CN(C)[C@H](C)[C@@H](O)[C@]1(C)O [Free AZI, Azithromycin]
mouse survival [2]: 100%

B1: DCS12: recombinant human DC-SIGN isoform, CRD fused to neck repeats 1 and 2, SEQ ID NO: 12 (protein)
chain: MAHHHHHHYGTGSGKGKGSGSGQSRQDAIYQNLTQLKAAVGELSEKSKLQEIYQELTQLKAAVERLCHPCPWEWTFFQGNCYFMSNSQRNWHDSITACKEVGAQLVVIKSAEEQNFLQLQSSRSNRFTWMGLSDLNQEGTWQWVDGSPLLPSFKQYWNRGEPNNVGEEDCAEFSGNGWNDDKCNLAKFWICKKSAASCSRDEEQFLSPAPATPNPPPA
bound more efficiently than untargeted AmB-LLs or BSA-AmB-LLs [3]: more than an order of magnitude
